Assay results taken from the supplement of paper PMC10307832.

What was measured:
Assay in all cases: relative viability (nuclei count vs DMSO), 5 days (fraction); higher = more cells survive
NCI-H596 = test system: NCI-H596
Summary of the method: (§1)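 Each reported value is a median over duplicate plates. It expresses relative viability: treated-well nuclei count divided by vehicle-well nuclei count. Lung cancer cell lines in 1536-well plates were dosed by pin tool a day after seeding, alone with one drug or with a fixed anchor-drug dose plus five library-drug doses (not always all listed) in √10 steps, and nuclei were counted after 5 days.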

EPLC-272H = test system: EPLC-272H
Summary of the method: as §1

HARA = test system: HARA
Summary of the method: as §1

LXF-289 = test system: LXF-289
Summary of the method: as §1

NCI-H1437 = test system: NCI-H1437
Summary of the method: as §1

NCI-H3122 = test system: NCI-H3122
Summary of the method: as §1

HCC-78 = test system: HCC-78
Summary of the method: as §1

NCI-H1666 = test system: NCI-H1666
Summary of the method: as §1

LCLC-97TM1 = test system: LCLC-97TM1
Summary of the method: as §1

H3255 = test system: H3255
Summary of the method: as §1

NCI-H2126 = test system: NCI-H2126
Summary of the method: as §1

Cc1csc(=NC2CCCCC2)n1/N=C/c1ccc(O)c(O)c1O [MIM1] + Cc1nc(NC(=O)N2CCC[C@H]2C(N)=O)sc1-c1ccnc(C(C)(C)C(F)(F)F)c1 [Alpelisib] (partner 2 µM)
relative viability (NCI-H596; first compound 2 µM): 0.525 | relative viability (NCI-H596; first compound 6.325 µM): 0.497 | relative viability (NCI-H596; first compound 20 µM): 0.48 | relative viability (EPLC-272H; first compound 0.2 µM): 0.968 | relative viability (EPLC-272H; first compound 0.6325 µM): 0.769 | relative viability (EPLC-272H; first compound 2 µM): 0.973 | relative viability (EPLC-272H; first compound 6.325 µM): 0.958 | relative viability (EPLC-272H; first compound 20 µM): 0.294 | relative viability (HARA; first compound 0.2 µM): 0.887 | relative viability (HARA; first compound 0.6325 µM): 0.857 | relative viability (HARA; first compound 2 µM): 0.878 | relative viability (HARA; first compound 6.325 µM): 0.361 | relative viability (HARA; first compound 20 µM): 0.165 | relative viability (LXF-289; first compound 0.2 µM): 1.07 | relative viability (LXF-289; first compound 0.6325 µM): 0.998 | relative viability (LXF-289; first compound 2 µM): 1.02 | relative viability (LXF-289; first compound 6.325 µM): 0.82 | relative viability (LXF-289; first compound 20 µM): 0.609 | relative viability (NCI-H1437; first compound 0.2 µM): 0.843 | relative viability (NCI-H1437; first compound 0.6325 µM): 0.935 | relative viability (NCI-H1437; first compound 2 µM): 0.959 | relative viability (NCI-H1437; first compound 6.325 µM): 0.592 | relative viability (NCI-H1437; first compound 20 µM): 0.289 | relative viability (NCI-H3122; first compound 0.2 µM): 0.825 | relative viability (NCI-H3122; first compound 0.6325 µM): 0.833 | relative viability (NCI-H3122; first compound 2 µM): 0.881 | relative viability (NCI-H3122; first compound 6.325 µM): 0.644 | relative viability (NCI-H3122; first compound 20 µM): 0.249 | relative viability (HCC-78; first compound 0.2 µM): 0.329 | relative viability (HCC-78; first compound 0.6325 µM): 0.388 | relative viability (HCC-78; first compound 2 µM): 0.362 | relative viability (HCC-78; first compound 6.325 µM): 0.365 | relative viability (HCC-78; first compound 20 µM): 0.359 | relative viability (NCI-H1666; first compound 0.2 µM): 0.827 | relative viability (NCI-H1666; first compound 0.6325 µM): 0.877 | relative viability (NCI-H1666; first compound 2 µM): 0.815 | relative viability (NCI-H1666; first compound 6.325 µM): 0.659 | relative viability (NCI-H1666; first compound 20 µM): 0.405 | relative viability (LCLC-97TM1; first compound 0.2 µM): 0.255 | relative viability (LCLC-97TM1; first compound 0.6325 µM): 0.258 | relative viability (LCLC-97TM1; first compound 2 µM): 0.207 | relative viability (LCLC-97TM1; first compound 6.325 µM): 0.26 | relative viability (LCLC-97TM1; first compound 20 µM): 0.129 | relative viability (H3255; first compound 0.2 µM): 0.753 | relative viability (H3255; first compound 0.6325 µM): 0.56 | relative viability (H3255; first compound 2 µM): 0.642 | relative viability (H3255; first compound 6.325 µM): 0.523 | relative viability (H3255; first compound 20 µM): 0.311 | relative viability (NCI-H2126; first compound 0.2 µM): 0.708 | relative viability (NCI-H2126; first compound 0.6325 µM): 0.756 | relative viability (NCI-H2126; first compound 2 µM): 0.776 | relative viability (NCI-H2126; first compound 6.325 µM): 0.758 | relative viability (NCI-H2126; first compound 20 µM): 0.727
